Several values for one entry are separate records, joined by “and”; a condition that tells them apart may be missing. Equal values may be shown once. Read-outs that look alike come from different tables or passages of the source.
How the values were obtained:
[1] = Pharmacokinetics of 14-day continuous intravenous infusion in monkeys; format: in vivo, Cynomolgus monkeys; details: for Css / mean steady-state plasma concentration / T½z: 14-day CIV; for Css: average between 30h and 14 days; for Css / T½z: mean; for mean steady-state plasma concentration: between 30 h and 14 days; for T½z: calculated at the end of treatment; for plasma concentration: CIV 30 mg/kg/day
Method: Cynomolgus monkeys received continuous IV infusion over 14 days of Formula I at 5 mg/kg/day, 15 mg/kg/day, or 30 mg/kg/day. The drug was infused intravenously (24 hours/day) into the femoral vein at a dose rate of 2 ml/kg/hour for 14 consecutive days. Blood samples were removed from each monkey on Days 1, 2, 6, 10, and 15 of the treatment period. Monkeys were bled by venipuncture and samples were collected into tubes containing K2EDTA. On Day 1, samples were collected at 2, 6, and 12 hours after initiation of treatment. Additional samples were collected at 30 hours after the start of infusion (Day 2). On Days 6 and 10, samples were collected at approximately 6 hours after the bag changes. At the end of the 14 days of infusion, on Day 15, samples were collected at 1 hour prior to cessation of dose administration, and at 5 min, 30 min, 1 h, 2 h, 4 h, 8 h, and 24 h following cessation of dose administration.

[2] = system: orthotopic C6 glioma tumor xenograft; assay: Orthotopic C6 glioma tumor xenograft survival model; format: in vivo, CD1 female nude mice; details: IP 30 mg/kg days 1, 2 and 3, then 10 mg/kg days 4 and 5 and 9 to 38
Method: The antitumor activity of the compound of formula I was further tested in a orthotopic C6 glioma tumor xenograft model in mice. CD1 female nude mice (6 weeks of age) were grafted intra-cerebrally with 5 x 10^4 (volume of 10 microliters) rat C6 glioma cells (day 0). Treatment was initiated 24 h after tumor cell implantation. The compound of Formula I was administered intraperitoneally (IP) at a concentration of 30 mg/kg (volume of 10 mL/Kg) on days 1, 2 and 3 followed by IP injections of 10 mg/kg on days 4 and 5 and 9 to 38. Vehicle (30% PEG; 30% PG; 40% H2O was injected in a volume of 10 mL/kg using the same route and schedule.
Body weight of animals was monitored every other day and the effect of the compound of Formula I on growth of intracerebral glioma tumors was evaluated by mouse survival and percentage increase in life span (%ILS, expressed as mean survival time of treated animals minus the mean survival time of the control group). By criteria established by the National Cancer Institute, increases in life span exceeding 25% indicate that the drug has significant antitumor activity (Plowman et al. (1997) Human tumor xenografts models in NCI drug development. In: Theicher BA (ed) Anticancer drug development guide: prescreening, clinical trials and approval. Human press, Totowa, pp 101-125). Statistical analysis of mouse survival was performed by Kaplan-Mayer analysis. […]

[3] = Allometric extrapolation of population pharmacokinetic parameters to humans; details: for half-life: human; for half-life / clearance / Vd: plasma, intravenous; for Vd: read-out: Vss
Method: An analysis was performed to derive allometric equations for Formula I pharmacokinetic parameters using Formula I plasma concentration-time data from three species, including mouse, rat, and monkey, and to estimate human pharmacokinetic parameters from those allometric equations.
Plasma concentrations of Formula I were obtained from mice, rats, and monkeys following intravenous injection or continuous infusion. Formula I pharmacokinetic parameters in mice, rats, and monkeys were estimated using population pharmacokinetic analysis, a function of the software program NONMEM™ (version 5). Typical population pharmacokinetic parameters for Formula I in humans were extrapolated from allometric equations that were derived from pharmacokinetic parameters estimated in the three animal species.
Allometric equations for the pharmacokinetic parameters clearance (CL), volume of distribution (V1 and V2), and inter-compartmental clearance (Q) were derived. The population PK parameters of the compound of Formula I for humans were extrapolated from the allometric equations, and the estimated values are shown in Table 6. Simulated Formula I plasma concentration-time profiles in humans are shown in Figure 13 and estimated end of infusion concentrations are provided in Table 7.

[4] = Human, WT 70 Kg, estimated from allometric equations
[5] = Human, estimated from allometric equations derived from mouse, rat and monkey

**Q.** For `CC(C)=CCC/C(C)=C/CC/C(C)=C/CN1C(=O)c2cccc(O)c2Nc2c(O)cc(O)cc21` [Formula I, 10-farnesyl-4,6,8-trihydroxy-dibenzodiazepin-11-one], which “AUC increase between the groups” value ([1]; 15 mg/kg/day group versus 5 mg/kg/day group) is on record?
**A.** 3.4 fold

**Q.** What about the “AUC higher than that of the middle dose group” value ([1]; 30 mg/kg/day group versus 15 mg/kg/day group) of the same molecule?
**A.** 4.7 fold

**Q.** What about the Css ([1]; 5 mg/kg/day) of the same molecule?
**A.** 358 ng/mL and 358 ^b ng/mL

**Q.** What about the “mean steady-state plasma concentration” value ([1]; 5 mg/kg/day) of the same molecule?
**A.** ~0.8 µM

**Q.** What about the T½z ([1]; 5 mg/kg/day) of the same molecule?
**A.** 12 h

**Q.** What about the Css ([1]; 15 mg/kg/day) of the same molecule?
**A.** 1,173 ng/mL

**Q.** And the “mean steady-state plasma concentration” value ([1]; 15 mg/kg/day)?
**A.** ~2.5 µM

**Q.** What about the T½z ([1]; 15 mg/kg/day) of the same molecule?
**A.** 8.3 h

**Q.** What about the Css ([1]; 30 mg/kg/day) of the same molecule?
**A.** 6,283 ng/mL

**Q.** And the T½z ([1]; 30 mg/kg/day)?
**A.** 8.1 h

**Q.** And the plasma concentration ([1]; Day 1)?
**A.** 2,814 ng/mL

**Q.** What about the plasma concentration ([1]; Day 6) of the same molecule?
**A.** 4,354 ng/mL

**Q.** And the plasma concentration ([1]; Day 10)?
**A.** 6,855 ng/mL

**Q.** And the plasma concentration ([1]; day 15)?
**A.** 8,561 ng/mL

**Q.** What about the “increase in life span” value [2] of the same molecule?
**A.** 29%

**Q.** What about the increase survival [2] of the same molecule?
**A.** 7 days

**Q.** What about the Q [3, 4] of the same molecule?
**A.** 2.27 L/h

**Q.** What about the V1 [3, 4] of the same molecule?
**A.** 13.9 L

**Q.** And the V2 [3, 4]?
**A.** 39.2 L

**Q.** What about the Ke [3, 5] of the same molecule?
**A.** 1.192 h⁻¹

**Q.** What about the Q [3, 5] of the same molecule?
**A.** 0.533 mL/min/kg

**Q.** And the V1 [3, 5]?
**A.** 0.198 L/kg

**Q.** And the V2 [3, 5]?
**A.** 0.559 L/kg

**Q.** And the half-life ([3]; estimated from allometric equations derived from mouse, rat and monkey, read-out: t1/2,α (converted))?
**A.** 0.509 h

**Q.** And the half-life ([3]; estimated from allometric equations derived from mouse, rat and monkey, read-out: t1/2,β (converted))?
**A.** 13.8 h

**Q.** And the clearance [3, 4]?
**A.** 275 mL/min

**Q.** What about the Vd [3, 4] of the same molecule?
**A.** 53.1 L

**Q.** What about the clearance [3, 5] of the same molecule?
**A.** 3.93 mL/min/kg

**Q.** And the Vd [3, 5]?
**A.** 0.757 L/kg
